Molecular target: T1, Bsu DNA polymerase large fragment / primed template nucleic acid (Bacillus subtilis, UniProt O34996)
T1 construct: 350 U/ml Bsu DNA polymerase large fragment
T1 sequence (O34996 297-880 limits assumed): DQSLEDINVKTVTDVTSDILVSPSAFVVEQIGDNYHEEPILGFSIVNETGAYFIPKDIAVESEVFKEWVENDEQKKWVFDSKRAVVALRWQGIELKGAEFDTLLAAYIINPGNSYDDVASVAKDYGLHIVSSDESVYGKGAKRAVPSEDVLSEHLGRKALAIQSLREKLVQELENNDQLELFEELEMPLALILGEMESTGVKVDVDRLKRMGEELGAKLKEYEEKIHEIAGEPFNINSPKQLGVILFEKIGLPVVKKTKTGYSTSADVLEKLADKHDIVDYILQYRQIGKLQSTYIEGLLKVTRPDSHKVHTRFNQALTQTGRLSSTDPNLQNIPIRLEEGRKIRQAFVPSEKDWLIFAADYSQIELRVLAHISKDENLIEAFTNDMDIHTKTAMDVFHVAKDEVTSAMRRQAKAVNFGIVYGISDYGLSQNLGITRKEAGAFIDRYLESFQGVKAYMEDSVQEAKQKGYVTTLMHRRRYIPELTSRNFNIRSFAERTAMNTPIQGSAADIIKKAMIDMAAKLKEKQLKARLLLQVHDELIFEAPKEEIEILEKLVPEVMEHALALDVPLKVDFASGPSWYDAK
Experiment: Biolayer interferometry of polymerase binding to immobilized primed template with cognate or non-cognate nucleotide, salt titration (Example 19)
Settings: for Ternary Complex Signal (Δλ, nm): dCTP (cognate); for Binary Complex Signal (Δλ, nm): dGTP (non-cognate)
Source text: A FORTEBIO® (Menlo Park, Calif.) OCTET® instrument employing biolayer interferometry to measure binding reactions at the surface of a fiber optic tip was used in a multiwell plate format to investigate differential stability of binary and ternary complexes. Template strands biotinylated at their 5′-ends were used to immobilize the primed template nucleic acid onto fiber optic tips functionalized with streptavidin (SA) according to standard procedures. […] Tips were first equilibrated in a Tris-buffered solution containing 30 mM Tris-HCl (pH 8.0), and 0.1 mM EDTA before commencing the cycling protocol. Independent binding reactions for the two test nucleotides (i.e., cognate and non-cognate nucleotides) were carried out in the presence of concentrations of NaCl, KCl, or potassium glutamate that varied from 50 mM to 500 mM. […] In all instances, the reaction mixture used during the examination step contained Tris-HCl (pH 8.0), 0.01% Tween-20, 100 μg/ml BSA, 2 mM NiSO4, 350 U/ml Bsu DNA polymerase large fragment; and one of the nucleotides at a concentration of 100 μM (dCTP was used as a cognate nucleotide, and dGTP was used as a non-cognate nucleotide). Following each examination step, tips were exposed to a buffer containing 30 mM Tris-HCl (pH 8.0), 500 mM KCl, 2 mM EDTA and 0.05% Tween-20 for 20 seconds to strip enzyme complexes from the primed template nucleic acid. The stripping step was followed by a 15 second exposure to examination buffer without enzyme, dNTP or divalent cations to regenerate tips for the next cycle of examination. When using a single contacting step to effect binding of polymerase and nucleotide to the primed template nucleic acid, the binding step was 45 seconds long, with binding interactions being monitored continuously. This was accomplished by contacting the primed template nucleic acid with a single solution that included the polymerase and test nucleotide. Results from interferometry monitoring were analyzed to identify formation of ternary complexes (i.e., identifying cognate nucleotide) or binary complexes (i.e., identifying non-cognate nucleotide).

[1] = KCl 50 mM + fixed 160 mM potassium glutamate
[2] = KCl 75 mM + fixed 160 mM potassium glutamate
[3] = KCl 100 mM + fixed 160 mM potassium glutamate
[4] = KCl 125 mM + fixed 160 mM potassium glutamate
[5] = KCl 150 mM + fixed 160 mM potassium glutamate
[6] = KCl 175 mM + fixed 160 mM potassium glutamate
[7] = KCl 200 mM + fixed 160 mM potassium glutamate
[8] = KCl 225 mM + fixed 160 mM potassium glutamate
[9] = KCl 250 mM + fixed 160 mM potassium glutamate
[10] = KCl 275 mM + fixed 160 mM potassium glutamate
[11] = KCl 300 mM + fixed 160 mM potassium glutamate
[12] = KCl 325 mM + fixed 160 mM potassium glutamate
[13] = KCl 350 mM + fixed 160 mM potassium glutamate
[14] = KCl 375 mM + fixed 160 mM potassium glutamate
[15] = KCl 400 mM + fixed 160 mM potassium glutamate
[16] = KCl 425 mM + fixed 160 mM potassium glutamate
[17] = KCl 450 mM + fixed 160 mM potassium glutamate
[18] = KCl 475 mM + fixed 160 mM potassium glutamate
[19] = KCl 500 mM + fixed 160 mM potassium glutamate

[Cl-].[K+] [KCl]
Fold Enhancement (Ternary/Binary) (KCl 50 mM): 1.03 | Fold Enhancement (Ternary/Binary) [1]: 1.24 | Ternary Complex Signal (Δλ, nm) [1]: 1.57 nm | Binary Complex Signal (Δλ, nm) [1]: 1.27 nm | Ternary Complex Signal (Δλ, nm) (KCl 50 mM): 2.98 nm | Binary Complex Signal (Δλ, nm) (KCl 50 mM): 2.90 nm | Fold Enhancement (Ternary/Binary) (KCl 75 mM): 0.97 | Fold Enhancement (Ternary/Binary) [2]: 1.41 | Ternary Complex Signal (Δλ, nm) [2]: 1.49 nm | Binary Complex Signal (Δλ, nm) [2]: 1.06 nm | Ternary Complex Signal (Δλ, nm) (KCl 75 mM): 2.59 nm | Binary Complex Signal (Δλ, nm) (KCl 75 mM): 2.68 nm | Fold Enhancement (Ternary/Binary) (KCl 100 mM): 1.00 | Fold Enhancement (Ternary/Binary) [3]: 1.71 | Ternary Complex Signal (Δλ, nm) [3]: 1.52 nm | Binary Complex Signal (Δλ, nm) [3]: 0.89 nm | Ternary Complex Signal (Δλ, nm) (KCl 100 mM): 2.29 nm | Binary Complex Signal (Δλ, nm) (KCl 100 mM): 2.29 nm | Fold Enhancement (Ternary/Binary) (KCl 125 mM): 0.98 | Fold Enhancement (Ternary/Binary) [4]: 2.05 | Ternary Complex Signal (Δλ, nm) [4]: 1.44 nm | Binary Complex Signal (Δλ, nm) [4]: 0.70 nm | Ternary Complex Signal (Δλ, nm) (KCl 125 mM): 1.93 nm | Binary Complex Signal (Δλ, nm) (KCl 125 mM): 1.98 nm | Fold Enhancement (Ternary/Binary) (KCl 150 mM): 1.00 | Fold Enhancement (Ternary/Binary) [5]: 2.46 | Ternary Complex Signal (Δλ, nm) [5]: 1.40 nm | Binary Complex Signal (Δλ, nm) [5]: 0.57 nm | Ternary Complex Signal (Δλ, nm) (KCl 150 mM): 1.67 nm | Binary Complex Signal (Δλ, nm) (KCl 150 mM): 1.67 nm | Fold Enhancement (Ternary/Binary) (KCl 175 mM): 0.99 | Fold Enhancement (Ternary/Binary) [6]: 3.31 | Ternary Complex Signal (Δλ, nm) [6]: 1.30 nm | Binary Complex Signal (Δλ, nm) [6]: 0.39 nm | Ternary Complex Signal (Δλ, nm) (KCl 175 mM): 1.41 nm | Binary Complex Signal (Δλ, nm) (KCl 175 mM): 1.43 nm | Fold Enhancement (Ternary/Binary) (KCl 200 mM): 1.08 | Fold Enhancement (Ternary/Binary) [7]: 4.15 | Ternary Complex Signal (Δλ, nm) [7]: 1.19 nm | Binary Complex Signal (Δλ, nm) [7]: 0.29 nm | Ternary Complex Signal (Δλ, nm) (KCl 200 mM): 1.30 nm | Binary Complex Signal (Δλ, nm) (KCl 200 mM): 1.20 nm | Fold Enhancement (Ternary/Binary) (KCl 225 mM): 1.17 | Fold Enhancement (Ternary/Binary) [8]: 5.35 | Ternary Complex Signal (Δλ, nm) [8]: 1.12 nm | Binary Complex Signal (Δλ, nm) [8]: 0.21 nm | Ternary Complex Signal (Δλ, nm) (KCl 225 mM): 1.20 nm | Binary Complex Signal (Δλ, nm) (KCl 225 mM): 1.03 nm | Fold Enhancement (Ternary/Binary) (KCl 250 mM): 1.35 | Fold Enhancement (Ternary/Binary) [9]: 7.02 | Ternary Complex Signal (Δλ, nm) [9]: 0.98 nm | Binary Complex Signal (Δλ, nm) [9]: 0.14 nm | Ternary Complex Signal (Δλ, nm) (KCl 250 mM): 1.11 nm | Binary Complex Signal (Δλ, nm) (KCl 250 mM): 0.82 nm | Fold Enhancement (Ternary/Binary) (KCl 275 mM): 1.51 | Fold Enhancement (Ternary/Binary) [10]: 9.07 | Ternary Complex Signal (Δλ, nm) [10]: 0.88 nm | Binary Complex Signal (Δλ, nm) [10]: 0.10 nm | Ternary Complex Signal (Δλ, nm) (KCl 275 mM): 1.02 nm | Binary Complex Signal (Δλ, nm) (KCl 275 mM): 0.67 nm | Fold Enhancement (Ternary/Binary) (KCl 300 mM): 2.04 | Fold Enhancement (Ternary/Binary) [11]: 8.34 | Ternary Complex Signal (Δλ, nm) [11]: 0.76 nm | Binary Complex Signal (Δλ, nm) [11]: 0.09 nm | Ternary Complex Signal (Δλ, nm) (KCl 300 mM): 0.96 nm | Binary Complex Signal (Δλ, nm) (KCl 300 mM): 0.47 nm | Fold Enhancement (Ternary/Binary) (KCl 325 mM): 1.97 | Fold Enhancement (Ternary/Binary) [12]: 8.97 | Ternary Complex Signal (Δλ, nm) [12]: 0.65 nm | Binary Complex Signal (Δλ, nm) [12]: 0.07 nm | Ternary Complex Signal (Δλ, nm) (KCl 325 mM): 0.71 nm | Binary Complex Signal (Δλ, nm) (KCl 325 mM): 0.36 nm | Fold Enhancement (Ternary/Binary) (KCl 350 mM): 3.72 | Fold Enhancement (Ternary/Binary) [13]: 7.94 | Ternary Complex Signal (Δλ, nm) [13]: 0.54 nm | Binary Complex Signal (Δλ, nm) [13]: 0.07 nm | Ternary Complex Signal (Δλ, nm) (KCl 350 mM): 0.64 nm | Binary Complex Signal (Δλ, nm) (KCl 350 mM): 0.17 nm | Fold Enhancement (Ternary/Binary) (KCl 375 mM): 3.21 | Fold Enhancement (Ternary/Binary) [14]: 12.46 | Ternary Complex Signal (Δλ, nm) [14]: 0.45 nm | Binary Complex Signal (Δλ, nm) [14]: 0.04 nm | Ternary Complex Signal (Δλ, nm) (KCl 375 mM): 0.49 nm | Binary Complex Signal (Δλ, nm) (KCl 375 mM): 0.15 nm | Fold Enhancement (Ternary/Binary) (KCl 400 mM): 9.48 | Fold Enhancement (Ternary/Binary) [15]: 13.75 | Ternary Complex Signal (Δλ, nm) [15]: 0.37 nm | Binary Complex Signal (Δλ, nm) [15]: 0.03 nm | Ternary Complex Signal (Δλ, nm) (KCl 400 mM): 0.39 nm | Binary Complex Signal (Δλ, nm) (KCl 400 mM): 0.04 nm | Fold Enhancement (Ternary/Binary) (KCl 425 mM): 85.77 | Fold Enhancement (Ternary/Binary) [16]: 13.28 | Ternary Complex Signal (Δλ, nm) [16]: 0.31 nm | Binary Complex Signal (Δλ, nm) [16]: 0.02 nm | Ternary Complex Signal (Δλ, nm) (KCl 425 mM): 0.28 nm | Binary Complex Signal (Δλ, nm) (KCl 425 mM): 0.00 nm | Fold Enhancement (Ternary/Binary) (KCl 450 mM): 16.47 | Fold Enhancement (Ternary/Binary) [17]: 7.24 | Ternary Complex Signal (Δλ, nm) [17]: 0.25 nm | Binary Complex Signal (Δλ, nm) [17]: 0.03 nm | Ternary Complex Signal (Δλ, nm) (KCl 450 mM): 0.19 nm | Binary Complex Signal (Δλ, nm) (KCl 450 mM): 0.01 nm | Fold Enhancement (Ternary/Binary) (KCl 475 mM): 4.89 | Fold Enhancement (Ternary/Binary) [18]: 4.54 | Ternary Complex Signal (Δλ, nm) [18]: 0.22 nm | Binary Complex Signal (Δλ, nm) [18]: 0.05 nm | Ternary Complex Signal (Δλ, nm) (KCl 475 mM): 0.14 nm | Binary Complex Signal (Δλ, nm) (KCl 475 mM): 0.03 nm | Fold Enhancement (Ternary/Binary) (KCl 500 mM): 2.69 | Fold Enhancement (Ternary/Binary) [19]: 2.97 | Ternary Complex Signal (Δλ, nm) [19]: 0.21 nm | Binary Complex Signal (Δλ, nm) [19]: 0.07 nm | Ternary Complex Signal (Δλ, nm) (KCl 500 mM): 0.09 nm | Binary Complex Signal (Δλ, nm) (KCl 500 mM): 0.04 nm | salt concentration of maximum signal ratios for ternary over binary complexes (no glutamate salt): about 450 mM

— US11168364B2, “Method and system for sequencing nucleic acids” (priority 2016, dated 2021)
